Patent EP0053015A1, “1-Phenylthio-2-aminopropane derivatives, their production and use” (Takeda Chemical Industries, Ltd., priority 1980, dated 1982)
Structures can show the parent of a compound that is named as a salt. Where two headings read alike, the source gives them in different places.

Experiments:
Format in all cases: in vivo
[1] = Suppression of food intake in mice; settings: Mus musculus, male ICR mice, 50 mg/kg oral, given 0.5 hour before feeding, food intake of control animals = 100%, (NS) = not statistically significant
Experimental: Male ICR mice, 7 weeks old, were acclimatised to six-hours-a-day feeding (CE-2 powder, Clea Japan) for 7 days and those animals showing a constant food intake were used in groups of 6 individuals. Each test compound was dissolved in a 5% aqueous solution of gum arabic and orally administered to mice at a dose level of 50 mg/kg as compound (I) at 0.5 hour before feeding on the 8th day. Control animals received a 5% solution of gum arabic only. Each figure in the table is the percent food intake with the food intake of control animals being taken as 100%.
In the table, the figures accompanied by NS in parentheses mean that the difference from control was not statistically significant. All other figures were significant at from P<0.02 to P<0.001.

[2] = Inventors' study of antiobesity, antidiabetic and anorectic effect of prior-art compounds; settings: according to the inventors' study; result in words
Excerpt: South African Patent No. 67/3108 describes the anti- depressive activity of 1-(4-chlorophenylthio)-2-aminopropane of the formula: [drawing 8] but this patent also says nothing about antiobesity or antidiabetic action. […] In contrast, the compounds of this invention exert strong and long-lasting antiobesity and antidiabetic effects because of their having the particular substituent (halogen) at the particular (para) position of the benzene ring and having the particular secondary amine-type structure.

fatty acid synthesis = assay: Inhibition of fatty acid synthesis (glucose-U-14C incorporation into fatty acid fractions); settings: Rattus norvegicus, Sprague-Dawley rats, 20 mg/kg oral, glucose-U-14C 30 minutes later, sacrificed after 60 minutes, versus distilled water control
Experimental: Male 7-week-old Sprague-Dawley rats were acclimatised to 2-hours-a-day feeding (CE-2 powder, Clea Japan) for 10 days and assigned to groups of 5 animals. The animals were orally given 20 mg/kg of l-(4-chlorophenylthio)-2-methylaminopropane fumarate as dissolved in distilled water, and,30 minutes thereafter, glucose-U-^14C (85 pCi/3 g/kg) was orally administered. After 60 minutes, each animal was sacrificed and the radioactivities incorporated into the fatty acid fractions of the liver and the epididymal adipose tissues were determined.

[3] = Suppression of food intake in rats; settings: male Sprague-Dawley rats fasted for 24 hours, 20 mg/kg by oral gavage, food given after 0.5 hour; control = 100%; ** P<0.01, * P<0.05
Experimental: Male 7-week-old rats of Sprague-Dawley strain were fasted for 24 hours and assigned to groups of 6 animals. A solution of .20 mg/kg of each test compound in distilled water was administered by oral gavage and after 0.5 hour, food (CE-2 powder) was given. The food intake in each group was measured at 1 hour and 2 hours thereafter and the results were compared with the food intake of control animals given distilled water only. The figures in the table denote the food intake percents, with the food intake of control animals being taken as 100%. By the term "gavage" is meant compulsory feeding.

[4] = 1 h, read-out: Food intake (%) 1 hour after administration
[5] = read-out: Food intake (%) 0.5 hour after administration

Structure (SMILES) | response vs control in vivo at 50 mg/kg [1, 4] [%] | response vs control in vivo at 50 mg/kg [1, 5] [%] | anorectic effect [2] | inhibition at 20 mg/kg (fatty acid synthesis; adipose tissues, read-out: relative inhibition rate, radioactivity incorporated into the fatty acid fraction of the epididymal adipose tissues) [%] | inhibition at 20 mg/kg (fatty acid synthesis; liver, read-out: relative inhibition rate, radioactivity incorporated into the fatty acid fraction of the liver) [%] | Food intake (%) 1 hour after administration [3] | Food intake (%) 2 hours after administration [3]
CNC(C)CSc1ccc(Cl)c(Cl)c1 (racemic) [Example 7, l-(3,4-dichlorophenylthio)-2-methylamino-propane] | 63.2 | 54.9 | – | – | – | – | –
CC(N)CSc1ccc(Cl)cc1 (centres unmarked) [1-(4-chlorophenylthio)-2-aminopropane, reference compound] | 85.5 | 69.5 | only a weak transient anorectic effect | – | – | – | –
CNC(C)CSc1ccccc1 (centres unmarked) [1-phenylthio-2-methyl-aminopropane, reference compound] | 112 | 106 | – | – | – | – | –
CNC(C)CSc1ccc(Cl)cc1.O=C(O)/C=C/C(=O)O (centres unmarked) [Example 1, 1-(4-chlorophenylthio)-2-methylaminopropane fumarate] | 55.2 | 43.2 | – | 58.8 | 46.6 | 43.9* % | 61.9** %
CCNC(C)CSc1ccc(Cl)cc1 (centres unmarked) [Example 3, 1-(4-chlorophenylthio)-2-ethylaminopropane fumarate] | 69.4 | 40.7 | – | – | – | – | –
CC(CSc1ccc(Cl)cc1)NCCO (centres unmarked) [Example 4, 1-(4-chlorophenylthio)-2-(2-hydroxyethylamino)propane fumarate] | 67.6 | 65.9 | – | – | – | – | –
CNC(C)CSc1ccc(F)cc1 (centres unmarked) [Example 5, 1-(4-fluorophenylthio)-2-methylaminopropane] | 66.5 | 57.9 | – | – | – | – | –
CNC(C)CSc1ccc(Br)cc1 (centres unmarked) [Example 6, 1-(4-bromophenylthio)-2-methylamino-propane] | 72.1 | 70.8 | – | – | – | – | –
CN[C@@H](C)CSc1ccc(Cl)cc1 [Example 8, (S)-l-(4-chlorophenylthio)-2-methylaminopropane fumarate] | – | – | – | – | – | 38.8** % | 56.1** %
